Values of other authors as cited in patent publication US20220175755A1, “METHODS OF TREATING TOBACCO SMOKING ADDICTION, AND TREATING NICOTINE AND TOBACCO SMOKING ADDICTION” (Pharma Unlimited B.V., priority 2017, published 2022).
Like-named read-outs stand apart in the source and are kept apart here.

Legend:
[1] = transdermal patches
[2] = test system: number of cigarettes smoked by tobacco smokers; conditions: aerosol with an inhaler, dose of 400 μg CBD dissolved in absolute ethanol≈5%
[3] = nicotine replacement therapy using chewing gum

| SMILES | time after applying a patch at which blood nicotine levels start to rise [1] | blood concentration after stopping chewing the gum (chewing gum, 90 minutes after stopping chewing) | peak nicotine absorption rate (chewing tobacco) | time of peak nicotine absorption rate (chewing tobacco) | peak blood concentration [3] | peak nicotine absorption rate [3] | time for nicotine absorption rate to decline to zero [3] | time of peak nicotine absorption rate [3] | time to peak blood concentration [3] | peak blood concentration (smoking cigarettes) | peak nicotine absorption rate (smoking cigarettes) | time of peak nicotine absorption rate (smoking cigarettes) | time to peak blood concentration (smoking cigarettes) | time for blood concentration to fall to 70% of the peak value (smoking cigarettes, after finishing smoking) | reduction of the number of cigarettes smoked [2] |
| --- | --- | --- | --- | --- | --- | --- | --- | --- | --- | --- | --- | --- | --- | --- | --- |
| CN1CCC[C@H]1c1cccnc1 [nicotine, 3-[(2S)-1-methylpyrrolidine-2-yl]pyridine] | about 30 minutes | about 7 ng/ml | around 145 μg/min | 5 min | less than 9 ng/ml | around 65 μg/min | about 90 minutes | 10 min | about 30 minutes | around 15 ng/ml | around 200 μg/min | about 5 minutes | about 10 minutes | about 20 minutes |  |
| C=C(C)[C@@H]1CCC(C)=C[C@H]1c1c(O)cc(CCCCC)cc1O [CBD] |  |  |  |  |  |  |  |  |  |  |  |  |  |  | 40% |
